# Laboratory results as given in patent publication US9447108B2 (SZEGEDI TUDOMÁNYEGYETEM, priority 2013, dated 2016).
# Where two headings read alike, the source gives them in different places.
# Columns and labels:
# rats = assay: Behavioral nociceptive testing, paw-withdrawal test (PWD), heat pain threshold; format: in vivo, rat; settings: for antinociception, potency and dose dependence: s.c., 0.3-10 mg/kg
# Procedure: The paw-withdrawal test (PWD) was used to measure the heat pain threshold after the treatments. A detailed description of this model was published by Hargreaves et al. (Hargreaves, K.; Dubner, R.; Brown, F.; Flores, C.; Joris, J. Pain; 32, 77 1988). Briefly, rats were placed on a glass surface in a plastic chamber and were allowed to acclimatize to their environment for 15-30 min before testing. The baseline hind paw-withdrawal latencies (baseline values at 0 min determined two times) were then obtained. A heat stimulus was directed onto the plantar surface of each hind paw and the intensity of the thermal stimulus was adjusted to derive an average baseline latency of approximately 10 s (cut-off time 20 s). Then the animals were treated subcutaneously with different doses of ligands (0.3-10 mg/kg). The nociceptive threshold was determined at 15-min intervals for 120 min.
# Data are presented as means±SEM. The mean of the two sides and the mean of two time points (15-30; 45-60; 75-90 and […]) were evaluated. The results were analyzed using a two-way ANOVA (ANalysis Of VAriances) (factors: treatment and time with repeated measurements). Subsequent analysis was performed using Fisher-LSD test. A p-value less than 0.05 was considered significant. Data were analyzed using […] 7.1. software (Statsoft Inc., Tulsa, Okla.).
# μ-opioid receptors = target: T1, μ-opioid receptors (Rattus norvegicus, UniProt P33535); assay: Receptor binding assay, [3H]DAMGO displacement in rat brain membranes; settings: for Ki^δ/Ki^μ: selectivity ratio δ/μ
# T1 construct: A crude membrane fraction was prepared from Wistar rat brains and spinal cords; from tissue; host or cells: Wistar rat brain (without cerebellum), crude membrane fraction
# T1 sequence (P33535 whole entry): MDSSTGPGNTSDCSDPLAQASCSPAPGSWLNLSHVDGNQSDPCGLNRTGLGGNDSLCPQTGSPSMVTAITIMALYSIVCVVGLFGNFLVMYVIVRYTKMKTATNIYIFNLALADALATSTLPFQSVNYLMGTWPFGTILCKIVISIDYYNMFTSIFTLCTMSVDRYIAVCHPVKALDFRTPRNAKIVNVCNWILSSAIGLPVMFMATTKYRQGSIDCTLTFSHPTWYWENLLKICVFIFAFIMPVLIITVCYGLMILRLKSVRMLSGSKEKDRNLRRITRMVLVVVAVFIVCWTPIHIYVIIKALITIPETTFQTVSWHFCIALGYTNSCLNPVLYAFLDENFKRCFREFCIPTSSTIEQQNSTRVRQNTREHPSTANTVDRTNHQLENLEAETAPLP
# δ-opioid receptors = target: T2, δ-opioid receptors (Rattus norvegicus, UniProt P33533); assay: Receptor binding assay, [3H]Ile5,6-deltorphin-2 displacement in rat brain membranes
# T2 construct: A crude membrane fraction was prepared from Wistar rat brains and spinal cords; from tissue; host or cells: Wistar rat brain (without cerebellum), crude membrane fraction
# T2 sequence (P33533 whole entry): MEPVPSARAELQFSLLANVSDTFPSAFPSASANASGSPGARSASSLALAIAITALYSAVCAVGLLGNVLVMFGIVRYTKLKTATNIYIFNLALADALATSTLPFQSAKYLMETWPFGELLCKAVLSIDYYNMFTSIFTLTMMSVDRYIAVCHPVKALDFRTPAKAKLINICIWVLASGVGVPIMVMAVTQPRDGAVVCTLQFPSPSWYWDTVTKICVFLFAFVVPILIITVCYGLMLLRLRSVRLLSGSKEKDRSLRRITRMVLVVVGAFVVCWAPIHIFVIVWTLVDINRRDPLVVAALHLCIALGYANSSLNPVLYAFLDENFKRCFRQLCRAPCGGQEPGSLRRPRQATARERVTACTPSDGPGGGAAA
# [1] = 10 mg/kg s.c., 0 min (baseline)
Compound,"Time course of the antinociceptive effects (paw-withdrawal latency) (rats; 3 mg/kg s.c., 0 min (baseline)) [s]","Time course of the antinociceptive effects (paw-withdrawal latency) (rats; 3 mg/kg s.c., 30 min) [s]","Time course of the antinociceptive effects (paw-withdrawal latency) (rats; 3 mg/kg s.c., 60 min) [s]","Time course of the antinociceptive effects (paw-withdrawal latency) (rats; 3 mg/kg s.c., 90 min) [s]","Time course of the antinociceptive effects (paw-withdrawal latency) (rats; 3 mg/kg s.c., 120 min) [s]",Time course of the antinociceptive effects (paw-withdrawal latency) (rats; [1]) [s],"Time course of the antinociceptive effects (paw-withdrawal latency) (rats; 10 mg/kg s.c., 30 min) [s]","Time course of the antinociceptive effects (paw-withdrawal latency) (rats; 10 mg/kg s.c., 60 min) [s]","Time course of the antinociceptive effects (paw-withdrawal latency) (rats; 10 mg/kg s.c., 90 min) [s]","Time course of the antinociceptive effects (paw-withdrawal latency) (rats; 10 mg/kg s.c., 120 min) [s]","antinociception, potency and dose dependence (rats; in words)",further results
CN1CC[C@]23c4c5ccc(O)c4O[C@H]2[C@@H](O)CC[C@H]3[C@H]1C5 [Dihydromorphine],10.2,13.1,13.9,14.1,13.3,10.1,19.4,20.6,15.3,14.1,,
CN1CC[C@]23c4c5ccc(O)c4O[C@H]2[C@@H](O)C=C[C@H]3[C@H]1C5 [Morphine],10.1,14.4,13.9,13.2,12.8,9.9,18.2,18.8,14.4,10.5,,
"[2H][C@@H]1[C@H]([2H])[C@H]2[C@H]3Cc4ccc(O)c5c4[C@@]2(CCN3C)[C@@H](O5)[C@H]1O [Example 1, (5α,6α,7β,8β)-3,6-dihydroxy-4,5-epoxy-17-methyl-(7,8-^2H2)-morphinan]",10.1,14.1,14.9,14.9,14.1,9.8,21.3,22.1,16.8,16.1,more potent,"antinociceptive effect at 3 mg/kg, efficacy compared to morphine (rats; 3 mg/kg s.c., in words): more effective than morphine; duration of antinociceptive effect compared to other drugs (rats; 3 mg/kg s.c., in words): more prolonged effects compared to other drugs"
CC(=O)Oc1ccc2c3c1O[C@H]1[C@@H](OC(C)=O)CC[C@H]4[C@@H](C2)N(C)CC[C@@]341 [Dihydroheroine],10.1,17.3,15.6,12.9,10.7,,,,,,,
"[2H][C@@H]1[C@H]([2H])[C@H]2[C@H]3Cc4ccc(OC)c5c4[C@@]2(CCN3C)[C@@H](O5)[C@H]1O [Example 2, (5α,6α,7β,8β)-4,5-epoxy-6-hydroxy-3-methoxy-17-methyl-(7,8-^2H2)-morphinan]",9.9,12.1,11.9,11.7,11.8,10.1,14.2,14.8,14.9,14.1,lower potency,"Ki (μ-opioid receptors): 0.0341 ± 0.00108 µM; affinity to μ-opioid receptors compared to the corresponding hydrogenated derivative (μ-opioid receptors; in words): higher affinity to μ-opioid receptors than the corresponding hydrogenated derivatives; Ki (δ-opioid receptors): > 10 µM; antinociceptive effect compared to non-deuterated analogues (rats; 10 mg/kg s.c., in words): increased and prolonged the effect"
CCOc1ccc2c3c1O[C@H]1[C@@H](O)CC[C@H]4[C@@H](C2)N(C)CC[C@@]341 [Dihydroethylmorphine],10.1,11.3,10.9,10.2,9.9,10.2,11.5,12.3,12.0,10.4,,
"[2H][C@@H]1[C@H]([2H])[C@H]2[C@H]3Cc4ccc(OC(C)=O)c5c4[C@@]2(CCN3C)[C@@H](O5)[C@H]1OC(C)=O [Example 4, (5α,6α,7β,8β)-3,6-diacetoxy-4,5-epoxy-17-methyl-(7,8-^2H2)-morphinan]",9.7,19.7,17.9,14.3,11.4,,,,,,more potent,"Ki (μ-opioid receptors): 0.00289 ± 0.0007 µM; affinity to μ-opioid receptors compared to morphine (μ-opioid receptors; in words): higher affinity to μ-opioid receptors than the morphine; Ki^δ/Ki^μ (μ-opioid receptors): 73; Ki (δ-opioid receptors): 0.211 ± 0.024 µM; duration of antinociceptive effect compared to other drugs (rats; 3 mg/kg s.c., in words): more prolonged effects compared to other drugs"
"(5α,6α,7β,8β)-4,5-epoxy-3-ethoxy-6-hydroxy-17-methyl-(7,8-^2H2)-morphinan [Example 3]",10.0,12.2,11.6,11.4,11.1,10.1,12.1,13.1,12.9,11.1,lower potency,"Ki (μ-opioid receptors; [3H]DAMGO, rat brain membranes, read-out: Ki^μ): 0.205 ± 0.0631 µM; Ki^δ/Ki^μ (μ-opioid receptors): 30; Ki (δ-opioid receptors; [3H]Ile5,6-deltorphin-2, rat brain membranes, read-out: Ki^δ): 6.12 ± 0.845 µM; antinociceptive effect compared to non-deuterated analogues (rats; 10 mg/kg s.c., in words): increased and prolonged the effect"
COc1ccc2c3c1O[C@H]1C(=O)CC[C@@]4(O)[C@@H](C2)N(C)CC[C@]314 [Oxycodone],9.8,12.2,12.6,11.9,10.6,,,,,,,
COc1ccc2c3c1O[C@H]1[C@@H](O)CC[C@H]4[C@@H](C2)N(C)CC[C@@]341 [Dihydrocodeine],10.1,11.1,10.7,10.5,10.3,9.9,13.4,13.6,10.9,9.8,,Ki (μ-opioid receptors): 0.122 ± 0.015 µM; Ki (δ-opioid receptors): > 10 µM
"[2H][C@H]1C(=O)[C@@H]2Oc3c(OC)ccc4c3[C@@]23CCN(C)[C@H](C4)[C@]3(O)[C@H]1[2H] [Example 5, (5α,7β,8β,14β)-4,5-epoxy-14-hydroxy-3-methoxy-17-methyl-(7,8-^2H2)-morphinan-6-one]",9.9,13.3,13.7,13.6,12.1,,,,,,,
